Ends that are not written are not given here.
How the values were obtained:
[1] = molecular target: T1, Lbc (Homo sapiens, UniProt Q12802); settings: shown previously (Schmidt et al., 2002 and unpublished results); cited from earlier work
T1 construct: GST-Dbl (DH-PH domain), GST-Lbc (DH-PH), GST-p63RhoGEF (DH domain) and GST-RhoG were purified as described previously; GST (N); made in house
T1 sequence (Q12802 1994-2333): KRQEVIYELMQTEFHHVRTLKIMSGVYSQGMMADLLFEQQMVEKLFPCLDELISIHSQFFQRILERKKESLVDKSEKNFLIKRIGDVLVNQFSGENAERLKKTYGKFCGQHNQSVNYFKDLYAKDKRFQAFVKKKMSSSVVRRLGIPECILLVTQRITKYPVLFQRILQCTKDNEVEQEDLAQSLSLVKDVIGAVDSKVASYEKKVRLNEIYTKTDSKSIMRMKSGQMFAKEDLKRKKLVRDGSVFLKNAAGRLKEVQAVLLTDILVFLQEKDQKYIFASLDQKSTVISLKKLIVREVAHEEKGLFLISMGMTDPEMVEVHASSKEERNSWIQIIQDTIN

[2] = molecular target: T2, p63RhoGEF (Homo sapiens, UniProt Q86VW2); settings: shown previously (Schmidt et al., 2002 and unpublished results); cited from earlier work
T2 construct: GST-p63RhoGEF (DH domain) and GST-RhoG were purified as described previously; GST (N); made in house

[3] = tested on: Dbl mediated RhoA activation; assay: RhoA activation assay (GST-RBD pull-down) in NIH3T3 cells expressing Dbl; format: cell-based; settings: GFP-tagged peptide
Description: FIG. 8 represents the effect of GFP-TRIPE32G on RhoA activation induced by Dbl (left panel) or Tgat (right panel) in NIH3T3 cells, assayed by GST-RBD pulldown. The levels of GTP-bound and total RhoA protein are shown in the upper two panels. Expression levels of Myc-Dbl and of all GFP-tagged proteins are shown in the lower two panels.
The level of GTP-bound RhoA was measured by a GST pulldown assay as described (Schmidt et al., 2002). Briefly, cell lysates were incubated with glutathione beads coated with the recombinant Rho-binding domain (RBD) of the RhoA specific effector Rhotekin (Cytoskeleton Inc.).

T2 sequence (Q86VW2 160-336 limits assumed): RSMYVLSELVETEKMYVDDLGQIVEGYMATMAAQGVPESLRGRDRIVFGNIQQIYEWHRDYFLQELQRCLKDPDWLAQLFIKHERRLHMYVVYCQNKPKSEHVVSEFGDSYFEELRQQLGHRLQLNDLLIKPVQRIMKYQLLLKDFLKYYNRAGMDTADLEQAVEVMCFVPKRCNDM

Substance: AREGADGAICGYNLATLVMLGPSERVFCPLCEPCSSDIYELM [TRIPα]
- activity on Lbc [1]: not active
- activity on p63RhoGEF [2]: not active

Substance: GST-TRIPE32G (AREGADGAICGYNLATLVMLGPSERVFCPLCGPCSSDIYELM; cysteine pairing not given here; also: GST fusion)
- inhibition of oncogenic Dbl mediated RhoA activation in intact cells [3]: not able to inhibit RhoA activation by Dbl
